Reference: US9403827B2, “Substituted purinone compounds” (NOVARTIS AG, priority 2013, dated 2016)

Key:
Assay type in all cases: binding
[1] = biological target: human MDM4 protein (amino acids 2-185) (Homo sapiens (Human), UniProt O15151); test: TR-FRET p53-MDM4 Assay 1; settings: 2.5 nM MDM4-biotinylated, 10 nM Cy5-p53 peptide
Experimental: (§1) Time Resolved Fluorescence Energy Transfer (TR-FRET) Assay
(§2) The inhibition of p53-MDM2 and p53-MDM4 interactions is measured by time resolved fluorescence energy transfer (TR-FRET). Fluorescence energy transfer (or Foerster resonance energy transfer) describes an energy transfer between donor and acceptor fluorescent molecules. For this assay, human MDM2 protein (amino acids 2-188) and human MDM4 protein (amino acids 2-185), tagged with a C-terminal biotin moiety, are used in combination with a Europium labeled streptavidin (Perkin Elmer, Inc., Waltham, Mass., USA) serving as the donor fluorophore. The p53 derived, Cy5 labeled peptide Cy5-TFSDLWKLL (p53 aa18-26) is the energy acceptor. Upon excitation of the donor molecule at 340 nm, binding interaction between MDM2 or MDM4 and the p53 peptide induces energy transfer and enhanced response at the acceptor emission wavelength at 665 nm.
(§3) Disruption of the formation of the p53-MDM2 or p53-MDM4 complex due to an inhibitor molecule binding to the p53 binding site of MDM2 or MDM4 results in increased donor emission at 620 nm. The ratiometric FRET assay readout is calculated from the raw data of the two distinct fluorescence signals measured in time resolved mode (fluorescence 665 nm/fluorescence 620 nm×1000).
(§4) The test is performed in white 384-well plates (Greiner Bio-One, reference 781207) in a total volume of 60 μL by adding 1 μL of compounds tested at different concentrations diluted in 100% DMSO (1.7% final DMSO concentration) in reaction buffer (PBS, 125 mM NaCl, 0.001% Novexin (consists of carbohydrate polymers), designed to increase the solubility and stability of proteins; Expedeon Ltd., Cambridgeshire, United Kingdom), 0.01% Gelatin, 0.01% 0.2%, Pluronic F-127 (block copolymer from ethylenoxide and propyleneoxide), 1 mM DTT). After addition of 1.25 nM MDM2-biotinylated or 2.5 nM MDM4-biotinylated (internal preparations, both MDM2 and MDM4 are biotinylated at the C-terminal of the peptide construct), and 0.625 nM Europium labeled streptavidin (Perkin Elmer), the solution is pre-incubated for 15 minutes at room temperature, then 10 nM Cy5-p53 peptide (internal preparation, the Cy5 dye is directly bound to the N-terminal part of p53 peptide construct) is added before an incubation at room temperature for 15 minutes prior to reading the plate. For measurement of samples, a Victor II microplate reader (Perkin Elmer) is used with the following settings: Excitation 340 nm, Emission Donor 620 nm and Emission Acceptor 665 nm. IC50 values are calculated by curve fitting using XLfit. If not specified, reagents are purchased from Sigma-Aldrich Chemie GmBH, Buchs, Switzerland.
(§5) This assay was used to evaluate compounds displaying inhibition of p53-MDM2 interaction and p53-MDM4 interaction at IC50s of 0.005 to 50 μM (p53-MDM2 Assay 1 and p53-MDM4 Assay 1, respectively). For selected compounds displaying IC50s between […] on MDM2, a slightly modified assay is used with the following adaptations: 0.1 nM MDM2, 0.1 nM Europium labeled streptavidin and Tecan genios Pro is used as a microplate reader for the fluorescence measurements (p53-MDM2 Assay 2).

[2] = biological target: T1, human MDM2 protein (amino acids 2-188) (Homo sapiens (Human), UniProt Q00987); test: TR-FRET p53-MDM2 Assay 1; settings: 1.25 nM MDM2-biotinylated, 10 nM Cy5-p53 peptide
Experimental: as §1, §2, §3, §4, §5

[3] = biological target: T1, human MDM2 protein (amino acids 2-188); test: TR-FRET p53-MDM2 Assay 2 (modified: 0.1 nM MDM2); settings: 0.1 nM MDM2, 0.1 nM Europium labeled streptavidin, Tecan genios Pro reader
Experimental: as §1, §2, §3, §4, §5

human MDM4 protein (amino acids 2-185), sequence (O15151 2-185): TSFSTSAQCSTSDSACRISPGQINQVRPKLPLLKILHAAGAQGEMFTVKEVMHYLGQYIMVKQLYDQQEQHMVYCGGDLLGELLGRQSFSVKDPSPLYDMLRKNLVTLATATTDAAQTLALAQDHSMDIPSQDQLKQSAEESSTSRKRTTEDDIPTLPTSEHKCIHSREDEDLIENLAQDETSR
T1 sequence (Q00987 2-188): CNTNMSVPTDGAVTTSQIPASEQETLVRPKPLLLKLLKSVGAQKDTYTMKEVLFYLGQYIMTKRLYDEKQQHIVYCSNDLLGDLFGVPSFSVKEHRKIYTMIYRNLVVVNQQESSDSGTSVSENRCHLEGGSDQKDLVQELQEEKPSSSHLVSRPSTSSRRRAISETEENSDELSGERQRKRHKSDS

COc1ccncc1-c1nc2c(n1C(C)C)C(c1ccc(Cl)cc1C)N(c1cc(Cl)ccc1C)C(=O)N2 (stereo not drawn) [Example 4, 6-(4-Chloro-2-methylphenyl)-1-(5-chloro-2-methylphenyl)-7-isopropyl-8-(4-methoxypyridin-3-yl)-6,7-dihydro-1H-purin-2(3H)-one]
IC50 [1]: 16.7 µM
IC50 [2]: 0.0031 µM

COc1ccccc1-c1nc2c(n1C(C)C)C(c1ccc(Cl)cc1)N(c1cccc(Cl)c1F)C(=O)N2 (stereo not drawn) [Example 1, 1-(3-Chloro-2-fluoro-phenyl)-6-(4-chloro-phenyl)-7-isopropyl-8-(2-methoxy-phenyl)-1,3,6,7-tetrahydro-purin-2-one]
IC50 [3]: 0.882 nM
IC50 [1]: 1.51 µM
IC50 [2]: 0.002 µM

COc1ccncc1-c1nc2c(n1C(C)C)C(c1ccc(Cl)cc1)N(c1cccc(Cl)c1F)C(=O)N2 (stereo not drawn) [Example 6, 1-(3-Chloro-2-fluorophenyl)-6-(4-chlorophenyl)-7-isopropyl-8-(4-methoxypyridin-3-yl)-6,7-dihydro-1H-purin-2(3H)-one]
IC50 [1]: 14 µM
IC50 [2]: 0.0085 µM

COc1ccccc1-c1nc2c(n1C(C)C)C(c1ccc(Cl)cc1C)N(c1cccc(Cl)c1F)C(=O)N2 (stereo not drawn) [Example 2, 1-(3-Chloro-2-fluoro-phenyl)-6-(4-chloro-2-methyl-phenyl)-7-isopropyl-8-(2-methoxy-phenyl)-1,3,6,7-tetrahydro-purin-2-one]
IC50 [3]: 0.779 nM
IC50 [1]: 2.13 µM
IC50 [2]: 0.0021 µM

COc1ccccc1-c1nc2c(n1C(C)C)C(c1ccc(Cl)cc1C)N(c1cc(Cl)ccc1C)C(=O)N2 (stereo not drawn) [Example 3, 6-(4-Chloro-2-methylphenyl)-1-(5-chloro-2-methylphenyl)-7-isopropyl-8-(2-methoxyphenyl)-6,7-dihydro-1H-purin-2(3H)-one]
IC50 [1]: 1.45 µM
IC50 [2]: 0.0018 µM
